Holding throughout (assay type): physicochemical
The nature of data set [1]: Dissolution of compressed tablets in water (Example 10). The note with it: compressed tablets of ivermectin alone. As for the experimental part: The dissolution of said tablets to yield a clear infinitely diluable aqueous solution of ivermectin is very rapid (15 minutes with gentle agitation).
Data set [2] can be described thus: Dissolution rate, solution/adsorption products versus comparison (Example 11). To be noted: added alone or dissolved in glycerol formal to an aqueous surfactant solution. The text has this:
37 parts of each of the solutions produced in Examples 5 and 6 is dry blended with I part of Accurel powder (50-75% void space). This mixture is then blended with 12 parts of Cab-O-Sil to produce a dry free-flowing powder which may be used as such or tableted as in Example 10.

Data set [3] in a line: Dissolution of thermoplastic solids in deionized distilled water (Example 12). The note with it: ivermectin into an aqueous solution of an equivalent amount of thermoplastic surfactant.
Data set [4] in a line: Solubility in deionized distilled water (Example 14). The procedure: A solution of 5% (50 mg/ml) w/v ivermectin is prepared by dissolving the product in Examples 1-5 and 7-9 in sufficient deionized distilled water. A mixture of an equivalent amount of ivermectin in deonized distilled water is only marginally soluble (1-4 mcg/ml). Therefore, the solubility of a poorly water soluble drug is enhanced (50,000 mcg/ml).

The solubility is how much of the substance goes into solution per volume. Consider ivermectin, for which the “time within which tablets do not dissolve or disintegrate” value in data set [1] is more than 3 days. For the same substance, the “dissolution rates compared with the invention” value in data set [2] is recorded as “less than those observed with the invention”. For the same substance, the “dissolution rate compared with the method of the invention” value in data set [3] is “significantly slower”. For the same substance, the solubility in data set [4] lay within 1 to 4 µg/mL.

(Values after patent publication EP0179583A1, “A system for enhancing the water dissolution rate and solubility of poorly soluble drugs” (Merck & Co., Inc., priority 1984, dated 1986).)
